Measured values reported in US7507730B2, “Substituted pyrazolo[1,5-a]pyrimidines as potassium channel activators” (Bristol-Myers Squibb Company, priority 2005, dated 2009).
Where two headings read alike, the source gives them in different places.

Target: Kv1.5 (Homo sapiens, UniProt P22460)
Experiment: Kv1.5 inhibition assay (IKur inhibitor assay per cited references)
Format: cell-based
Conditions: for Kv1.5% inhibition / inhibition at 0.3 µM: at 0.3 μM
Text: Assays to determine the degree of activity of a compound as an IKur inhibitor are well known in the art and are described in references such as J. Gen. Physiol. Apr.; 101 (4):513-43, and Br. J. Pharmacol. 1995 May; 115(2):267-74.

Chain of Kv1.5 (P22460 whole entry): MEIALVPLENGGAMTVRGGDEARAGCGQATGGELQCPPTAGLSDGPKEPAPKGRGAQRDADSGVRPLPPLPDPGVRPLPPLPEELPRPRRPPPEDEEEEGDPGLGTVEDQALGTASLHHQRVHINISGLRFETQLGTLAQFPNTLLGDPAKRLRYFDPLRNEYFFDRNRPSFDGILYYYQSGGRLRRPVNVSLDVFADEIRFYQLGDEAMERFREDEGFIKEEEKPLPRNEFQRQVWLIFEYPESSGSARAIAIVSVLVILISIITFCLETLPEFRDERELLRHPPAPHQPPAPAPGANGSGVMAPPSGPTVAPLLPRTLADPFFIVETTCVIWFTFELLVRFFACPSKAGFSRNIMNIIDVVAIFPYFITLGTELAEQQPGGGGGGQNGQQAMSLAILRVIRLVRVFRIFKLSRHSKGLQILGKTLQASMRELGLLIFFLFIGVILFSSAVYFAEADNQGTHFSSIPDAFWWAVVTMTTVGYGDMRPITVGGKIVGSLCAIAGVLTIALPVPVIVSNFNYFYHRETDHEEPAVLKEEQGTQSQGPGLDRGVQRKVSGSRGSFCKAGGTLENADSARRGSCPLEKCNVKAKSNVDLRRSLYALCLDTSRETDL

Kv1.5% inhibition	inhibition at 0.3 µM	Structure (SMILES)	also measured
48%		CC1=C(S(=O)(=O)c2ccc(F)cc2)C(c2ccc(Cl)c(Cl)c2)n2nc(C)cc2N1 (single isomer, unassigned) [Example 1 Isomer 2, 7-(3,4-Dichlorophenyl)-6-(4-fluorophenylsulfonyl)-2,5-dimethyl-4,7-dihydropyrazolo[1,5-a]pyrimidine]	
	30%	CC1=C(S(=O)(=O)N(C)c2ccccc2)C(c2ccc(Cl)c(Cl)c2)n2nc(C(F)(F)F)cc2N1 (single isomer, unassigned) [Example 63 Isomer 1, 7-(3,4-Dichlorophenyl)-N,5-dimethyl-N-phenyl-2-(trifluoromethyl)-4,7-dihydropyrazolo[1,5-a]pyrimidine-6-sulfonamide]	
	77%	CCCCS(=O)(=O)C1=C(C)Nc2cc(C(F)(F)F)nn2C1c1ccc(Cl)cc1 (single isomer, unassigned) [Example 30 Isomer 2, 6-(Butylsulfonyl)-7-(4-chlorophenyl)-5-methyl-2-(trifluoromethyl)-4,7-dihydropyrazolo[1,5-a]pyrimidine]	
56%		CC1=C(C(=O)N(C)S(=O)(=O)C(C)C)C(c2ccc(Cl)c(Cl)c2)n2nc(C(F)(F)F)cc2N1 (single isomer, unassigned) [Example 96 Isomer 2, 7-(3,4-Dichlorophenyl)-N-(isopropylsulfonyl)-N,5-dimethyl-2-(trifluoromethyl)-4,7-dihydropyrazolo[1,5-a]pyrimidine-6-carboxamide]	
	69.2%	COc1ccc(S(=O)(=O)C2=C(C)Nc3cc(C(F)(F)F)nn3C2c2ccc(Cl)cc2)cc1OC (single isomer, unassigned) [Example 51 Isomer 1, 7-(4-Chlorophenyl)-6-(3,4-dimethoxyphenylsulfonyl)-5-methyl-2-(trifluoromethyl)-4,7-dihydropyrazolo[1,5-a]pyrimidine]	
27%		CCN(C(=O)C1=C(C)Nc2cc(C(F)(F)F)nn2C1c1ccc(Cl)c(Cl)c1)S(=O)(=O)c1ccc(Cl)cc1 (single isomer, unassigned) [Example 93 Isomer 2, N-(4-Chlorophenylsulfonyl)-7-(3,4-dichlorophenyl)-N-ethyl-5-methyl-2-(trifluoromethyl)-4,7-dihydropyrazolo[1,5-a]pyrimidine-6-carboxamide]	
		CC1=C(S(=O)(=O)c2ccc(Cl)cc2)C(c2ccc(Cl)c(Cl)c2)n2nccc2N1 (single isomer, unassigned) [Example 2 Isomer 2, 6-(4-Chlorophenylsulfonyl)-7-(3,4-dichlorophenyl)-5-methyl-4,7-dihydropyrazolo[1,5-a]pyrimidine]	IC50 (read-out: Kv1.5 IC50): 0.037 µM
	71%	CCCS(=O)(=O)N(C(=O)C1=C(C)Nc2cc(C(F)(F)F)nn2C1c1ccc(Cl)c(Cl)c1)C1CC1 (racemic) [Example 88, N-Cyclopropyl-7-(3,4-dichlorophenyl)-5-methyl-N-(propylsulfonyl)-2-(trifluoromethyl)-4,7-dihydropyrazolo[1,5-a]pyrimidine-6-carboxamide]	
	82.7%	CC1=C(S(=O)(=O)c2ccc(Cl)cc2)C(c2ccc(Cl)cc2)n2nc(C(F)(F)F)cc2N1 (single isomer, unassigned) [Example 31 Isomer 1, 7-(4-Chlorophenyl)-6-(4-chlorophenylsulfonyl)-5-methyl-2-(trifluoromethyl)-4,7-dihydropyrazolo[1,5-a]pyrimidine]	
	27.7%	CC1=C(S(=O)(=O)NCc2ccccc2)C(c2ccc(Cl)cc2)n2nc(C(F)(F)F)cc2N1 (racemic) [Example 54, N-Benzyl-7-(4-chlorophenyl)-5-methyl-2-(trifluoromethyl)-4,7-dihydropyrazolo[1,5-a]pyrimidine-6-sulfonamide]	
		COc1ccc(S(=O)(=O)C2=C(C)Nc3cc(C)nn3C2c2ccc(Cl)c(Cl)c2)cc1 (single isomer, unassigned) [Example 8 Isomer 2, 7-(3,4-Dichlorophenyl)-6-(4-methoxyphenylsulfonyl)-2,5-dimethyl-4,7-dihydropyrazolo[1,5-a]pyrimidine]	IC50 (read-out: Kv1.5 IC50): 0.174 µM
	80%	CC1=C(C(=O)N(C)S(=O)(=O)c2c(C)noc2C)C(c2ccc(Cl)c(Cl)c2)n2nc(C)cc2N1 (single isomer, unassigned) [Example 94 Isomer 1, 7-(3,4-Dichlorophenyl)-N-(3,5-dimethylisoxazol-4-ylsulfonyl)-N,2,5-trimethyl-4,7-dihydropyrazolo[1,5-a]pyrimidine-6-carboxamide]	
		CC1=C(C(=O)N(C)S(=O)(=O)C2CC2)C(c2ccc(Cl)c(Cl)c2)n2nc(C(F)(F)F)cc2N1 (single isomer, unassigned) [Example 98 Isomer 1, N-(Cyclopropylsulfonyl)-7-(3,4-dichlorophenyl)-N,5-dimethyl-2-(trifluoromethyl)-4,7-dihydropyrazolo[1,5-a]pyrimidine-6-carboxamide]	IC50 (read-out: Kv1.5 IC50): 0.112 µM
	26%	CC1=C(S(=O)(=O)N2CCN(c3ccccc3)CC2)C(c2ccc(Cl)c(Cl)c2)n2nc(C(F)(F)F)cc2N1 (racemic) [Example 70, 7-(3,4-Dichlorophenyl)-5-methyl-6-(4-phenylpiperazin-1-ylsulfonyl)-2-(trifluoromethyl)-4,7-dihydropyrazolo[1,5-a]pyrimidine]	
	7.8%	CC1=C(S(=O)(=O)c2ccccc2)C(c2ccc(Cl)s2)n2nc(C(F)(F)F)cc2N1 (racemic) [Example 20, 7-(5-Chlorothiophen-2-yl)-5-methyl-6-(phenylsulfonyl)-2-(trifluoromethyl)-4,7-dihydropyrazolo[1,5-a]pyrimidine]	
63%		CC1=C(C(=O)N(C)S(=O)(=O)c2c(C)noc2C)C(c2ccc(Cl)c(Cl)c2)n2nc(C)cc2N1 (single isomer, unassigned) [Example 94 Isomer 2, 7-(3,4-Dichlorophenyl)-N-(3,5-dimethylisoxazol-4-ylsulfonyl)-N,2,5-trimethyl-4,7-dihydropyrazolo[1,5-a]pyrimidine-6-carboxamide]	
	60%	CC1=C(S(=O)(=O)N2CCCC2)C(c2ccc(Cl)cc2)n2nc(C(F)(F)F)cc2N1 (single isomer, unassigned) [Example 67 Isomer 1, 7-(4-Chlorophenyl)-5-methyl-6-(pyrrolidin-1-ylsulfonyl)-2-(trifluoromethyl)-4,7-dihydropyrazolo[1,5-a]pyrimidine]	
	78.6%	COc1cccc(S(=O)(=O)C2=C(C)Nc3cc(C(F)(F)F)nn3C2c2ccc(Cl)c(Cl)c2)c1 (single isomer, unassigned) [Example 39 Isomer 1, 7-(3,4-Dichlorophenyl)-6-(3-methoxyphenylsulfonyl)-5-methyl-2-(trifluoromethyl)-4,7-dihydropyrazolo[1,5-a]pyrimidine]	
90.5%		CCN(CC)S(=O)(=O)C1=C(C)Nc2cc(C)nn2C1c1ccc(Cl)c(Cl)c1 (single isomer, unassigned) [Example 61 Isomer 1, 7-(3,4-Dichlorophenyl)-N,N-diethyl-2,5-dimethyl-4,7-dihydropyrazolo[1,5-a]pyrimidine-6-sulfonamide]	
	72%	CCCS(=O)(=O)N(C)C(=O)C1=C(C)Nc2cc(C(F)(F)F)nn2C1c1ccc(Cl)c(Cl)c1 (single isomer, unassigned) [Example 91 Isomer 1, 7-(3,4-Dichlorophenyl)-N,5-dimethyl-N-(propylsulfonyl)-2-(trifluoromethyl)-4,7-dihydropyrazolo[1,5-a]pyrimidine-6-carboxamide]	
6.5%		COc1ccc(S(=O)(=O)C2=C(C)Nc3cc(C)nn3C2c2nc3ccccc3n2C)cc1 (single isomer, unassigned) [Example 23 Isomer 1, 6-(4-Methoxyphenylsulfonyl)-2,5-dimethyl-7-(1-methyl-1H-benzo[d]imidazol-2-yl)-4,7-dihydropyrazolo[1,5-a]pyrimidine]	
74.7%		COc1ccccc1S(=O)(=O)C1=C(C)Nc2cc(C(F)(F)F)nn2C1c1ccc(Cl)cc1 (single isomer, unassigned) [Example 46 Isomer 2, 7-(4-Chlorophenyl)-6-(2-methoxyphenylsulfonyl)-5-methyl-2-(trifluoromethyl)-4,7-dihydropyrazolo[1,5-a]pyrimidine]	
		CC1=C(C(=O)N(C)S(=O)(=O)c2ccccc2)C(c2ccc(Cl)c(Cl)c2)n2nc(C)cc2N1 (racemic) [Example 78, 7-(3,4-Dichlorophenyl)-N,2,5-trimethyl-N-(phenylsulfonyl)-4,7-dihydropyrazolo[1,5-a]pyrimidine-6-carboxamide]	IC50 (given as % inhibition, value given as a concentration in μM, read-out: Kv1.5% inhibition): 0.164 µM
95.7%		CC1=C(S(=O)(=O)N2CCCC2)C(c2ccc(Cl)c(Cl)c2)n2nc(C)cc2N1 (single isomer, unassigned) [Example 53 Isomer 1, 7-(3,4-Dichlorophenyl)-2,5-dimethyl-6-(pyrrolidin-1-ylsulfonyl)-4,7-dihydropyrazolo[1,5-a]pyrimidine]	
		CC1=C(S(=O)(=O)c2ccc(F)cc2)C(c2ccc(Cl)c(Cl)c2)n2nc(C(F)(F)F)cc2N1 (single isomer, unassigned) [Example 12 Isomer 1, 7-(3,4-Dichlorophenyl)-6-(4-fluorophenylsulfonyl)-5-methyl-2-(trifluoromethyl)-4,7-dihydropyrazolo[1,5-a]pyrimidine]	IC50 (read-out: Kv1.5 IC50): 0.142 µM
50%		CCN(C(=O)C1=C(C)Nc2cc(C)nn2C1c1ccc(Cl)c(Cl)c1)S(=O)(=O)c1c(C)noc1C (single isomer, unassigned) [Example 97 Isomer 2, 7-(3,4-Dichlorophenyl)-N-(3,5-dimethylisoxazol-4-ylsulfonyl)-N-ethyl-2,5-dimethyl-4,7-dihydropyrazolo[1,5-a]pyrimidine-6-carboxamide]	
21.5%		CC1=C(S(=O)(=O)c2ccccn2)C(c2ccc(Cl)c(Cl)c2)n2nc(C)cc2N1 (single isomer, unassigned) [Example 11 Isomer 2, 7-(3,4-Dichlorophenyl)-2,5-dimethyl-6-(pyridin-2-ylsulfonyl)-4,7-dihydropyrazolo[1,5-a]pyrimidine]	
